SMILES strings stand for the structures.

As a reminder, the IC50 is the concentration that gives 50% inhibition.

One assay concerns the target T1, human HDAC1 (hHDAC1) (Homo sapiens, UniProt Q13547).
T1 construct: purchased BPS Bioscience Inc. 50051
Put plainly: In vitro human HDAC1 assay (ZMAL substrate). It is filed as biochemical. As to the method:
(§1) OptiPlate-96 black microplates (Perkin Elmer Inc., Waltham, MA, USA) were used with an assay volume of 50 µL. […] After an incubation time of 90 min, 50 µL of 0.4 mg/mL trypsin in trypsin buffer (50 mM Tris-HCl, pH 8.0, and 100 mM NaCl) was added, followed by further incubation at 37 °C for 30 min.

The target of another assay is T2, human HDAC6 (hHDAC6) (Homo sapiens, UniProt Q9UBN7).
T2 construct: purchased BPS Bioscience Inc. 50006
T2 sequence (Q9UBN7 1-1215): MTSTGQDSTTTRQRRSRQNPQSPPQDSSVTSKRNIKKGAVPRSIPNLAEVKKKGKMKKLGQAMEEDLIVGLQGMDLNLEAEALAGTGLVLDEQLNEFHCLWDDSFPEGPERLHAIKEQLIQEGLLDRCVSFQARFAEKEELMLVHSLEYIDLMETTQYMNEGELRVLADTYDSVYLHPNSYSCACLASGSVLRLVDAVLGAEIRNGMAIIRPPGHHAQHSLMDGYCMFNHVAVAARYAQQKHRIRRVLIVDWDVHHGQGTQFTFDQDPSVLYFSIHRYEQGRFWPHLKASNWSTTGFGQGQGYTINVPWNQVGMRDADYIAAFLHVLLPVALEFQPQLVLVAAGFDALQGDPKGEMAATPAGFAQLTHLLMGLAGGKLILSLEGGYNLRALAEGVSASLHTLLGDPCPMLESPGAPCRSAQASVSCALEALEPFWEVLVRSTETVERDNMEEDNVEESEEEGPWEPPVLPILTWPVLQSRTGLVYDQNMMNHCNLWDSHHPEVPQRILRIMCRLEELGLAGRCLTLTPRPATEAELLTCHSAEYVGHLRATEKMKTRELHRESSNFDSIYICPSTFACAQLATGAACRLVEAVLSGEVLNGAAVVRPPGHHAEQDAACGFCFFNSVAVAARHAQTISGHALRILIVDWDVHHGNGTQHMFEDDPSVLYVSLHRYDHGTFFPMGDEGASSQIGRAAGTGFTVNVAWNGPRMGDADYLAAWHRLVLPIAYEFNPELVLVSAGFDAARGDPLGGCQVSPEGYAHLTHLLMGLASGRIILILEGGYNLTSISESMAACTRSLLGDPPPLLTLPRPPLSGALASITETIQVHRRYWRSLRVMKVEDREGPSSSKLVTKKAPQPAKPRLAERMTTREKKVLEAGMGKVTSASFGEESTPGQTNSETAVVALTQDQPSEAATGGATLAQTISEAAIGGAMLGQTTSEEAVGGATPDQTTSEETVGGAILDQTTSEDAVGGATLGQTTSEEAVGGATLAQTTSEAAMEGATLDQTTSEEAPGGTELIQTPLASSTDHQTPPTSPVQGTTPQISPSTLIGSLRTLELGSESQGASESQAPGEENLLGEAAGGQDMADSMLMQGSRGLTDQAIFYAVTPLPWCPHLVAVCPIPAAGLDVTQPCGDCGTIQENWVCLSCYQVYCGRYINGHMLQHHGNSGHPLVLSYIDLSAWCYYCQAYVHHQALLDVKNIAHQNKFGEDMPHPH
Put plainly: In vitro human HDAC6 assay (ZMAL substrate). The format is biochemical. The following applies: for SI 1/6: Selectivity Index = (hHDAC1 IC50)/(hHDAC6 IC50). On the procedure:
as §1

A further assay deals with P. falciparum Dd2 R539T. Put plainly: In vitro P. falciparum growth inhibition assay (HRP2), Dd2 R539T. It is filed as cell-based. The following applies: Plasmodium falciparum, DD2, 72 h, read-out: PfDd2 R539T IC50. As to the method: Antiplasmodial activity of DHA–HDACi hybrids was evaluated against the asexual stages of the laboratory P. falciparum strains (3D7, chloroquine-sensitive strain, and Dd2, chloroquine-resistant strain, and Dd2 R539T (MRA-1255), provided by BEI Resources carrying a kelch13-mutation that conveys partial artemisinin resistance), using the histidine-rich protein 2 (HRP2) assay, as previously described. In brief: 96-well plates were precoated with the tested compounds in a three-fold serial dilution before ring-stage parasites were added in complete culture medium at a hematocrit of 1.5% and a parasitaemia of 0.05%. After three days of incubation at 37 °C, 5% CO2 and 5% O2 plates were frozen until analyzed by HRP2-ELISA. All compounds were evaluated in duplicate in at least two independent experiments. The IC50 was determined by nonlinear regression analysis of log concentration-response curves using the drc-package v3.0.1 [40] of R v4.0.5..

The subject of the next assay is K562 cells. Put plainly: CellTiter-Glo cell viability assay, K562. The format is cell-based, human. The following applies: for IC50: Homo sapiens, K562, CML, 72 h, CellTiter-Glo, n = 3; for Selectivity index range healthy fibroblasts vs K562: SI = (healthy fibroblast IC50)/(leukemia cell line IC50), range over two fibroblasts. As to the method: (§2) Healthy individually-derived fibroblasts were cultured in DMEM supplemented with 10% FCS. Regular cell line authentication was performed short tandem repeat (STR) analysis (DNA fingerprinting), followed by comparison with the original DSMZ cell line database.
(§3) Cell viability assay was performed with leukemic cell lines after 72 h incubation with the respective inhibitors using ATP-based CellTiter-Glo luminescent assay (Promega, Madison, WI, USA).

A further assay concerns HL60 cells. Put plainly: CellTiter-Glo cell viability assay, HL60. The format is cell-based, human. The following applies: for IC50: Homo sapiens, HL-60, AML, 72 h, CellTiter-Glo, n = 3; for Selectivity index range healthy fibroblasts vs HL60: SI = (healthy fibroblast IC50)/(leukemia cell line IC50), range over two fibroblasts. As to the method: as §2, §3
Background: In ATP-based viability assays light output follows the ATP content of the culture.

The subject of a further assay is NALM6 cells. Put plainly: CellTiter-Glo cell viability assay, NALM6. The format is cell-based, human. The following applies: for IC50: Homo sapiens, NALM-6, B-ALL, 72 h, CellTiter-Glo, n = 3; for Selectivity index range healthy fibroblasts vs NALM6: SI = (healthy fibroblast IC50)/(leukemia cell line IC50), range over two fibroblasts. On the procedure: as §2, §3
Another assay has as its system HPBALL cells. Put plainly: CellTiter-Glo cell viability assay, HPBALL. It is filed as cell-based, human. The following applies: for IC50: Homo sapiens, HPBALL, T-ALL, 72 h, CellTiter-Glo, n = 3; for Selectivity index range healthy fibroblasts vs HPB ALL: SI = (healthy fibroblast IC50)/(leukemia cell line IC50), range over two fibroblasts. On the procedure: as §2, §3

Assay [1] deals with five leukemia cell lines (K562, HL60, NALM6, HPBALL, MOLM13). Put plainly: CellTiter-Glo cell viability assay, panel of five leukemia cell lines. The following applies: for antiproliferative activity compared to DHA: number of the five leukemia cell lines in which DHA is exceeded. The format is cell-based, human. As to the method: as §2, §3

T1 sequence (Q13547 whole entry): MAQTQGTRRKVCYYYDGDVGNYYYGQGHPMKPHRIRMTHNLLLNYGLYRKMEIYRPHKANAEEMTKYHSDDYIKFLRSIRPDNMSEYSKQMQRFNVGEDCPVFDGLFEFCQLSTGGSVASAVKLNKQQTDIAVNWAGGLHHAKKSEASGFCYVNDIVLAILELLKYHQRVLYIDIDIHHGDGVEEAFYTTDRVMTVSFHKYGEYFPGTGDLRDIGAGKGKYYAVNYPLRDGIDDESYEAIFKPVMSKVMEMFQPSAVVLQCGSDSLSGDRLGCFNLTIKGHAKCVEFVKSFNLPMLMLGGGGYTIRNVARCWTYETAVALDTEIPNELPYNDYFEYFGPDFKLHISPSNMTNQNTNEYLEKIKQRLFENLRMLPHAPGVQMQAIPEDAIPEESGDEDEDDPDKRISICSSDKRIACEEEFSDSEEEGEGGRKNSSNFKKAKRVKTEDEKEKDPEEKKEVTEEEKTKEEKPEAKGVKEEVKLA

As for `C[C@H]1[C@H](SCc2ccc(C(=O)NO)cc2)O[C@@H]2O[C@@]3(C)CC[C@H]4[C@H](C)CC[C@@H]1[C@@]24OO3` [(β)-7c, N-Hydroxy-4-((((3R,5aS,6R,8aS,9R,10S,12S,12aR)-3,6,9-trimethyldecahydro-12H-3,12-epoxy[1,2]dioxepino[4,3-i]isochromen-10-yl)thio)methyl)benzamide], the IC50 on human HDAC1 (hHDAC1) was 2790 ± 140 nM; on human HDAC6 (hHDAC6), 41 ± 9 nM; in the assay with P. falciparum Dd2 R539T, 2.6 ± 2 nM; with K562 cells, 410 ± 110 nM; in the assay with HL60 cells, 2340 ± 460 nM; in the assay with NALM6 cells, 250 ± 10 nM. The same compound yielded an IC50 in the assay with HPBALL cells of 12300 ± 570 nM. The “SI 1/6” value on human HDAC6 (hHDAC6) turned out to be 68. Also, the “Selectivity index range healthy fibroblasts vs K562” value with K562 cells is listed as 36-43. Moreover, the “Selectivity index range healthy fibroblasts vs HL60” value in the assay on HL60 cells is 6-8. Also, the “Selectivity index range healthy fibroblasts vs NALM6” value in the assay with NALM6 cells is given as 59-71. Also, the “Selectivity index range healthy fibroblasts vs HPB ALL” value in the assay on HPBALL cells is given as 1.2-1.4. The “antiproliferative activity compared to DHA” value in assay [1] is on record as “outperforming DHA in four out of five”.
As to `C[C@@H]1CC[C@H]2[C@@H](C)C(OCc3ccc(/C=C/C(=O)NO)cc3)O[C@@H]3O[C@@]4(C)CC[C@@H]1[C@]32OO4` (stereo partly drawn) [Compound 7a, (E)-N-Hydroxy-3-(4-((((3R,5aS,6R,8aS,9R,12R,12aR)-3,6,9-trimethyldecahydro-12H-3,12-epoxy[1,2]dioxepino[4,3-i]isochromen-10-yl)oxy)methyl)phenyl)acrylamide], the IC50 amounted to 546 ± 0.3 nM against human HDAC1 (hHDAC1); 187 ± 4 nM on human HDAC6 (hHDAC6); 1.9 ± 1.4 nM in the assay with P. falciparum Dd2 R539T; 310 ± 60 nM in the assay with K562 cells; 1330 ± 140 nM in the assay with HL60 cells; 150 ± 10 nM in the assay with NALM6 cells. Also, the IC50 was 1360 ± 30 nM with HPBALL cells and 150 to 1360 nM in assay [1] (Homo sapiens, range over K562, HL60, NALM6, HPBALL, MOLM13, read-out: IC50 values across the five leukemia cell lines). Also, at human HDAC6 (hHDAC6), the “SI 1/6” value came out at 3. The “Selectivity index range healthy fibroblasts vs K562” value with K562 cells is given as 21-42. Moreover, the “Selectivity index range healthy fibroblasts vs HL60” value with HL60 cells was 5-10. Also, the “Selectivity index range healthy fibroblasts vs NALM6” value with NALM6 cells is 42-87. For the same compound, the “Selectivity index range healthy fibroblasts vs HPB ALL” value with HPBALL cells was 5-10. For the same compound, the “selectivity indices (SI) fibroblasts over leukemia cells, highest” value in assay [1] (highest SI across leukemia cell lines and fibroblasts) is reported as “up to 87”. Also, the “antiproliferative activity compared to DHA” value in assay [1] was “all five cell lines”.
Consider `C[C@H]1[C@@H](SCc2ccc(C(=O)NO)cc2)O[C@@H]2O[C@@]3(C)CC[C@H]4[C@H](C)CC[C@@H]1[C@@]24OO3` [(α)-7c, N-Hydroxy-4-((((3R,5aS,6R,8aS,9R,10R,12S,12aR)-3,6,9-trimethyldecahydro-12H-3,12-epoxy[1,2]dioxepino[4,3-i]isochromen-10-yl)thio)methyl)benzamide], for which the IC50 against human HDAC1 (hHDAC1) was 2000 ± 200 nM; on human HDAC6 (hHDAC6), 36 ± 8 nM; in the assay with P. falciparum Dd2 R539T, 3.3 ± 2.2 nM; in the assay on K562 cells, 620 ± 60 nM; with HL60 cells, 1020 ± 270 nM; in the assay on NALM6 cells, 280 ± 50 nM. In addition, 6720 ± 440 nM corresponded to half-maximal inhibition with HPBALL cells (IC50). For the same compound, the “SI 1/6” value at human HDAC6 (hHDAC6) is 56. Besides, the “Selectivity index range healthy fibroblasts vs K562” value in the assay with K562 cells is 12-21. For the same compound, the “Selectivity index range healthy fibroblasts vs HL60” value with HL60 cells is on record as 7-12. Besides, the “Selectivity index range healthy fibroblasts vs NALM6” value in the assay on NALM6 cells is recorded as 27-45. Further, the “Selectivity index range healthy fibroblasts vs HPB ALL” value with HPBALL cells is 1.1-1.9. Moreover, the “antiproliferative activity compared to DHA” value in assay [1] is “all five cell lines”.
As for `C[C@H]1[C@@H](O)O[C@@H]2O[C@@]3(C)CC[C@H]4[C@H](C)CC[C@@H]1[C@@]24OO3` [DHA, dihydroartemisinin], the IC50 against human HDAC1 (hHDAC1) was over 10000 nM; at human HDAC6 (hHDAC6), over 10000 nM; in the assay with K562 cells it was 2400 ± 660 nM; in the assay on HL60 cells it was 3570 ± 1040 nM; with NALM6 cells, 2500 ± 160 nM; in the assay on HPBALL cells, 9930 ± 1510 nM.

Values taken from publication PMC8952208, “Synthesis, Antiplasmodial, and Antileukemia Activity of Dihydroartemisinin–HDAC Inhibitor Hybrids as Multitarget Drugs” (Pharmaceuticals, 2022).
